The values below come from patent US9060515B2, “Heterocyclic urea compounds” (BIOTA EUROPE LTD, priority 2011, dated 2015).

Values after ≈ are worked out from the molar mass of the structure shown. A value given as a limit tells only on which side of the number the result lay.

In one assay the test system is S. aureus (ATCC 29213). The experiment in a line: Antibacterial susceptibility testing (MIC, broth microdilution or agar dilution), S. aureus. The class given is cell-based. The settings on record: Staphylococcus aureus, ATCC29213; read-out: S. aureus (ATCC 29213) minimal inhibitory concentration (MIC). How it is done: (§1) Compounds of the invention were tested for antimicrobial activity by susceptibility testing in liquid or on solid media. MICs for compounds against each strain were determined by the broth microdilution or agar dilution method according to the guidelines of the Clinical Laboratories and Standards Institute, formerly the National Committee for Clinical Laboratory Standards (Clinical Laboratories and Standards Institute. Methods for Dilution Antimicrobial Susceptibility Tests for Bacteria That Grow Aerobically; Approved Standard—Seventh Edition. Document M7-A7. CLSI, Wayne, Pa., 2006; Clinical Laboratories and Standards Institute. The Gram positive bacterial strains tested include S. aureus (Staphylococcus aureus (Isolate ID ATCC 29213)), E. faecalis (Enterococcus faecalis (Isolate ID ATCC 29212)) and S. pyogenes (Streptococcus pyogenes (Isolate ID ATCC 51339)). The Gram negative bacterial strains tested include H. influenzae (Haemophilus influenzae (Isolate ID ATCC 49247)).
On the technique in general: Dilution methods test growth across graded concentrations, often in twofold steps.
Regarding `CCNC(=O)Nc1cc(Nc2ccc(Cl)cc2)c(C(=O)Nc2ccc(-n3cc(CN)nn3)cc2)cn1` [Compound 194, N-{4-[4-(aminomethyl)-1H-1,2,3-triazol-1-yl]phenyl}-4-[(4-chlorophenyl)amino]-6-[(ethylcarbamoyl)amino]pyridine-3-carboxamide], the MIC is 8 µg/mL (≈ 15.8 µM).

As to `CCNC(=O)Nc1cc(Nc2ccc(C)cc2)c(C(=O)Nc2cccnc2)cn1` [Compound 140], the MIC was at most 1 µg/mL.

In the case of `CCNC(=O)Nc1cc(Nc2ccc(C(F)(F)F)cc2)c(C(=O)Nc2cccnc2)cn1` [Compound 142], the MIC amounted to 2 µg/mL (≈ 4.5 µM).

For `CCNC(=O)Nc1cc(Nc2ccc(F)cc2)c(C(=O)Nc2cccnc2)cn1` [Compound 139], the MIC was at most 1 µg/mL.

Consider `CCNC(=O)Nc1cc(Nc2ccccc2)c(C(=O)Nc2ccc(C#CCO)cc2)cn1` [Compound 135, 6-[(Ethylcarbamoyl)amino]-N-[4-(3-hydroxyprop-1-yn-1-yl)phenyl]-4-(phenylamino)pyridine-3-carboxamide], for which the MIC is at most 1 µg/mL.

As to `CCNC(=O)Nc1cc(Nc2ccnc(C)c2)c(C(=O)Nc2cccnc2)cn1` [Compound 162], the MIC is 8 µg/mL (≈ 20.4 µM).

Turning to `CCNC(=O)Nc1cc(Nc2ccc(Cl)cc2)c(C(=O)Nc2ccc(N=[N+]=[N-])cc2)cn1` [Compound 132, N-(4-azidophenyl)-4-[(4-chlorophenyl)amino]-6-[(ethylcarbamoyl)amino]pyridine-3-carboxamide], the MIC is 8 µg/mL (≈ 17.7 µM).

In the case of `CCNC(=O)Nc1cc(Nc2ccc(OC)cc2)c(C(=O)Nc2ccc(CC(C)(C)C(=O)O)cc2)cn1` [Compound 208, 3-{4-[({6-[(ethylcarbamoyl)amino]-4-[(4-methoxyphenyl)amino]pyridin-3-yl}carbonyl)amino]phenyl}-2,2-dimethylpropanoic acid], the MIC was at most 1 µg/mL.

For `CCNC(=O)Nc1cc(Nc2cccnc2)c(C(=O)Nc2ccc([C@@H]3C[C@H]3C(=O)O)cc2)cn1` [Compound 193], the MIC was 32 µg/mL (≈ 69.5 µM).

With `CCNC(=O)Nc1cc(Nc2ccc(Cl)cc2)c(C(=O)Nc2ccc(C#CC(C)(C)O)cc2)cn1` [Compound 185, 4-[(4-chlorophenyl)amino]-6-[(ethylcarbamoyl)amino]-N-[4-(3-hydroxy-3-methylbut-1-yn-1-yl)phenyl]pyridine-3-carboxamide], the MIC is 8 µg/mL (≈ 16.3 µM).

`CCNC(=O)Nc1cc(Nc2cncc(OC)c2)c(C(=O)Nc2cccnc2)cn1` [Compound 174]: the MIC was 4 µg/mL (≈ 9.82 µM).

For the compound `CCNC(=O)Nc1cc(Nc2ccc(OC)nc2)c(C(=O)Nc2cccnc2)cn1` [Compound 145], the MIC was determined as 4 µg/mL (≈ 9.82 µM).

`CNC(=O)Nc1cc(Nc2ccccc2)c(C(=O)Nc2ccc(CCC(=O)O)cc2)cn1` [Compound 186, 3-{4-[({6-[(methylcarbamoyl)amino]-4-(phenylamino)pyridin-3-yl}carbonyl)amino]phenyl}propanoic acid]: the MIC came out at 32 µg/mL (≈ 73.8 µM).

`CCNC(=O)Nc1cc(Nc2cccnc2)c(C(=O)Nc2ccc(CCC(=O)O)cc2)cn1` [Compound 153, 3-{4-[({6-[(ethylcarbamoyl)ami-no]-4-(pyridin-3-ylamino)pyridin-3-yl}carbonyl)amino]phenyl}pro-opanoic acid]: the MIC is 16 µg/mL (≈ 35.7 µM).

With `CCNC(=O)Nc1cc(Nc2ccccc2F)c(C(=O)Nc2cccnc2)cn1` [Compound 144], the MIC is at most 1 µg/mL.

As for `CCNC(=O)Nc1cc(Nc2cccnc2)c(C(=O)Nc2ccc(NCC3(C(=O)OC)CCC3)nc2)cn1` [Compound 156, methyl 1-[({5-[({6-[(ethylcarbamoyl)amino]-4-(pyridin-3-ylamino)pyridin-3-yl}carbonyl)amino]pyridin-2-yl}amino)methyl]cyclobutane carboxylate], the MIC is 16 µg/mL (≈ 30.9 µM).

For the compound `CCNC(=O)Nc1cc(Nc2cc(F)cc(F)c2)c(C(=O)Nc2ccc(Cc3nnn[nH]3)cc2)cn1` [Compound 209, 4-(3,5-difluoroanilino)-6-(ethylcarbamoylamino)-N-[4-(1H-tetrazol-5-ylmethyl)phenyl]pyridine-3-carboxamide], the MIC was at most 1 µg/mL.

In the case of `CCNC(=O)Nc1cc(Nc2cccc(C(F)(F)F)c2)c(C(=O)Nc2cccnc2)cn1` [Compound 141], the MIC was at most 1 µg/mL.

With `CCNC(=O)Nc1cc(Nc2ccc(Cl)cc2)c(C(=O)Nc2cnc(NC3(C(=O)O)CCC3)nc2)cn1` [Compound 165, 1-({5-[({4-[(4-chlorophenyl)amino]-6-[(ethylcarbamoyl)amino]pyridin-3-yl}carbonyl)amino]pyrimidin-2-yl}amino) cyclobutanecarboxylic acid], the MIC came out at 16 µg/mL (≈ 30.5 µM).

In the case of `CCNC(=O)Nc1cc(Nc2cccc(F)c2)c(C(=O)Nc2cccnc2)cn1` [Compound 143], the MIC was at most 1 µg/mL.

With `CCNC(=O)Nc1cc(Nc2cccnc2)c(C(=O)Nc2ccc(CC(C)(C)C(=O)OC)cc2)cn1` [Compound 170, methyl 3-{4-[({6-[(ethylcarbamoyl)amino]-4-(pyridin-3-ylamino)pyridin-3-yl}carbonyl)amino]phenyl}-2,2-dimethylpropanoate], the MIC is at most 1 µg/mL.

On to `CCNC(=O)Nc1cc(Nc2cccnc2)c(C(=O)Nc2ccc(CCC(=O)OC)cc2)cn1` [Compound 147], for which the MIC was 4 µg/mL (≈ 8.65 µM).

Consider `CCNC(=O)Nc1cc(Nc2ccc(C)nc2)c(C(=O)Nc2cccnc2)cn1` [Compound 167], for which the MIC turned out to be 16 µg/mL (≈ 40.9 µM).

For the compound `CCNC(=O)Nc1cc(Nc2cncc(C)c2)c(C(=O)Nc2cccnc2)cn1` [Compound 157], the MIC turned out to be 8 µg/mL (≈ 20.4 µM).

For another assay, the system named is S. pyogenes (ATCC 51339). The experiment in a line: Antibacterial susceptibility testing (MIC, broth microdilution or agar dilution), S. pyogenes. The conditions noted are these: Streptococcus pyogenes, ATCC51339; read-out: S. pyogenes (ATCC 51339) minimal inhibitory concentration (MIC). The format is cell-based. On the procedure: as §1
For the compound `CCNC(=O)Nc1cc(Nc2ccc(=O)n(C)c2)c(C(=O)Nc2cccnc2)cn1` [Compound 108, 6-(3-ethylureido)-4-(1-methyl-6-oxo-1,6-dihydropyridin-3-ylamino)-N-(pyridin-3-yl)nicotinamide], the MIC stood at 16 µg/mL (≈ 39.3 µM).

Turning to `CCNC(=O)Nc1cc(Nc2ccc(C(=O)NC)cc2)c(C(=O)Nc2cccnc2)cn1` [Compound 126, 6-(3-ethylureido)-4-(4-(methylcarbamoyl)phenylamino)-N-(pyridin-3-yl)nicotinamide], the MIC is 2 µg/mL (≈ 4.61 µM).

As for `CCNC(=O)Nc1cc(Nc2ccc(C(N)=O)cc2)c(C(=O)Nc2cccnc2)cn1` [Compound 125, 4-(4-carbamoylphenylamino)-6-(3-ethylureido)-N-(pyridin-3-yl)nicotinamide], the MIC was at most 1 µg/mL.

As to `CCNC(=O)Nc1cc(Nc2ccccc2)c(C(=O)Nc2ccnnc2)cn1` [Compound 64, 6-(3-ethylureido)-4-(phenylamino)-N-(pyridazin-4-yl)nicotinamide], the MIC is at most 1 µg/mL.

Regarding `CCNC(=O)Nc1cc(Nc2ccc(C(=O)O)cc2)c(C(=O)Nc2cccnc2)cn1` [Compound 16, 4-(2-(3-Ethylureido)-5-(pyridin-3-ylcarbamoyl)pyridin-4-ylamino)benzoic acid], the MIC is at most 1 µg/mL.

Take `CCNC(=O)Nc1cc(Nc2cccc(C(=O)O)c2)c(C(=O)Nc2cccnc2)cn1` [Compound 87, 3-(2-(3-ethylureido)-5-(pyridin-3-ylcarbamoyl)pyridin-4-ylamino)benzoic acid]: the MIC came to 8 µg/mL (≈ 19 µM).

Consider `CCNC(=O)Nc1cc(Nc2ccccc2)c(C(=O)Nc2cncc(C(=O)O)c2)cn1` [Compound 84, 5-(6-(3-ethylureido)-4-(phenylamino)nicotinamido)nicotinic acid], for which the MIC amounted to 16 µg/mL (≈ 38.1 µM).

For the compound `CCNC(=O)Nc1cc(Nc2ccc(C(=O)N(C)C)cc2)c(C(=O)Nc2cccnc2)cn1` [Compound 124, 4-(4-(dimethylcarbamoyl)phenylamino)-6-(3-ethylureido)-N-(pyridin-3-yl)nicotinamide], the MIC worked out at 4 µg/mL (≈ 8.94 µM).
